Experimental data from PubChem BioAssay AID330 (DTP/NCI, 2004).
“And” between values parts separate entries of the source, which are not always exact repeats. Equal entries are not always repeated. Inconclusive results and toxic doses are left out. How the source made its calls: active means survival T/C of 150% or more; inactive means T/C below 125% in these data.

System: P388 leukemia ip, CD2F1 mice, survival T/C
Test: NCI In Vivo Anticancer Drug Screen. Data for tumor model P388 Leukemia (intraperitoneal) in CD2F1 (CDF1) mice
Conditions: endpoint: median survival time, higher = longer survival
Outline: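 Mice carrying the transplanted tumor received test compound or vehicle. Survival was recorded in each group, and the value is the treated-group measurement divided by that of the vehicle-treated control group.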

[1] = dose: 50.0 mg/kg/injection, schedule: Q01DX009 (ip), vehicle: saline
[2] = dose: 100.0 mg/kg/injection, schedule: Q01DX009 (ip), vehicle: saline
[3] = dose: 200.0 mg/kg/injection, schedule: Q01DX009 (ip), vehicle: saline
[4] = dose: 100.0 mg/kg/injection, schedule: Q04DX003 (ip), vehicle: saline with Tween-80
[5] = dose: 200.0 mg/kg/injection, schedule: Q04DX003 (ip), vehicle: saline with Tween-80
[6] = dose: 60.0 mg/kg/injection, schedule: Q01DX005 (ip), vehicle: saline with Tween-80
[7] = dose: 120.0 mg/kg/injection, schedule: Q01DX005 (ip), vehicle: saline with Tween-80
[8] = dose: 240.0 mg/kg/injection, schedule: Q01DX005 (ip), vehicle: saline with Tween-80
[9] = dose: 50.0 mg/kg/injection, schedule: Q01DX009 (ip), vehicle: Klucel (hydroxypropylcellulose) (HPC)

Measured: T/C

Cc1oc2c(C)c3oc(=O)cc(C)c3cc2c1CO
inactive: dose: 100.0 mg/kg/injection, schedule: Q05DX002 (ip), vehicle: Klucel (hydroxypropylcellulose) (HPC) 92 % of control | dose: 200.0 mg/kg/injection, schedule: Q05DX002 (ip), vehicle: Klucel (hydroxypropylcellulose) (HPC) 97 % of control | dose: 400.0 mg/kg/injection, schedule: Q05DX002 (ip), vehicle: Klucel (hydroxypropylcellulose) (HPC) 95 % of control

C/C=C/C(C)C1OC1(C)C(O)C1COC(=O)C(O)C(OC)C(C)C(=O)C(C)C(O)/C(C)=C/C(C)C(=O)CC(O)C(C)C1=O (centres undefined)
inactive: dose: 0.39 micrograms/kg/injection, schedule: Q01DX005 (ip), vehicle: saline 106 % of control | dose: 0.78 micrograms/kg/injection, schedule: Q01DX005 (ip), vehicle: saline 119 % of control | dose: 1.56 micrograms/kg/injection, schedule: Q01DX005 (ip), vehicle: saline 123 % of control | dose: 3.12 micrograms/kg/injection, schedule: Q01DX005 (ip), vehicle: saline 119 % of control | dose: 6.25 micrograms/kg/injection, schedule: Q01DX005 (ip), vehicle: saline 113 % of control and 123 % of control

CC1=CC(OC2CCCCO2)CC(C)(C)C1 (centres undefined)
inactive: [1] 100 % of control | [2] 99 % of control | [3] 101 % of control

Oc1ccc(CCNCc2ccc3c(c2)OCO3)cc1
inactive: [4] 99 % of control | [5] 95 % of control

O/N=C(/Cc1nc2cc(Cl)c(Cl)cc2nc1C/C(=N/O)c1cccc2ccccc12)c1cccc2ccccc12
inactive: [6] 91 % of control | [7] 99 % of control | [8] 94 % of control

Cc1ccc(NC(=O)NCCCCCCNC(=O)Nc2ccc(C)cc2)cc1
inactive: [6] 96 % of control | [7] 94 % of control | [8] 106 % of control

O=C(CCCCC(=O)NO)NO
inactive: [9] 102 % of control | dose: 100.0 mg/kg/injection, schedule: Q01DX009 (ip), vehicle: Klucel (hydroxypropylcellulose) (HPC) 105 % of control | dose: 200.0 mg/kg/injection, schedule: Q01DX009 (ip), vehicle: Klucel (hydroxypropylcellulose) (HPC) 105 % of control

Cc1c(-c2ccccc2)nc2sccn12
inactive: dose: 25.0 mg/kg/injection, schedule: Q01DX009 (ip), vehicle: saline 102 % of control | [1] 102 % of control | [2] 96 % of control

Cn1c(=O)c2nc3c(=O)n(C)c(=O)n(C)c3nc2n(C)c1=O
inactive: dose: 6.25 mg/kg/injection, schedule: Q01DX009 (ip), vehicle: Klucel (hydroxypropylcellulose) (HPC) 100 % of control and 102 % of control and 118 % of control | dose: 12.5 mg/kg/injection, schedule: Q01DX009 (ip), vehicle: Klucel (hydroxypropylcellulose) (HPC) 101 % of control and 103 % of control and 116 % of control | dose: 25.0 mg/kg/injection, schedule: Q01DX009 (ip), vehicle: Klucel (hydroxypropylcellulose) (HPC) 104 % of control and 120 % of control | [9] 111 % of control

CCN(CC)CCCC(C)Nc1ncnc2cc(Cl)ccc12 (centres undefined)
inactive: dose: 50.0 mg/kg/injection, schedule: Q01DX005 (ip), vehicle: saline with Tween-80 97 % of control | dose: 100.0 mg/kg/injection, schedule: Q01DX005 (ip), vehicle: saline with Tween-80 94 % of control | dose: 200.0 mg/kg/injection, schedule: Q01DX005 (ip), vehicle: saline with Tween-80 94 % of control

CC(CO)CCC1OC2CC3C4CC=C5C=CCCC5(C)C4CCC3(C)C2C1C (centres undefined)
inactive: dose: 2.25 mg/kg/injection, schedule: Q01DX005 (ip), vehicle: Klucel (hydroxypropylcellulose) (HPC) 107 % of control | dose: 4.5 mg/kg/injection, schedule: Q01DX005 (ip), vehicle: Klucel (hydroxypropylcellulose) (HPC) 104 % of control | dose: 9.0 mg/kg/injection, schedule: Q01DX005 (ip), vehicle: Klucel (hydroxypropylcellulose) (HPC) 97 % of control | dose: 18.0 mg/kg/injection, schedule: Q01DX005 (ip), vehicle: Klucel (hydroxypropylcellulose) (HPC) 96 % of control | dose: 36.0 mg/kg/injection, schedule: Q01DX005 (ip), vehicle: Klucel (hydroxypropylcellulose) (HPC) 124 % of control

CCNCC(=O)Nc1ccc(C2NC(=O)C(C)(C)c3ccccc32)cc1 (centres undefined)
inactive: [1] 99 % of control | [2] 101 % of control | [3] 97 % of control

COC(=O)c1[nH]c(=O)[nH]c(=O)c1N
inactive: dose: 25.0 mg/kg/injection, schedule: Q04DX003 (ip), vehicle: saline with Tween-80 100 % of control | dose: 50.0 mg/kg/injection, schedule: Q04DX003 (ip), vehicle: saline with Tween-80 101 % of control | [4] 100 % of control | [5] 102 % of control
